What was measured:
[1] = test system: mice; experiment: acute toxicity (LD50), intraperitoneal administration; type: in vivo; details: mice (male, 20 g)
Description: Representative LD50 values, for example, for N^2 -(5,6,7,8-tetrahydro-1-naphthylsulfonyl)-N-(2-methoxyethyl)glycine, N^2 -(7-methyl-2-naphthylsulfonyl)-N-butylglycine and N^2 -(6,7-dimethyl-1-naphthylsulfonyl)-N-(2-methoxyethyl)glycine are above 1,500 milligrams per kilogram, respectively.

[2] = molecular target: T1, thrombin (Bos taurus, UniProt P00735); experiment: fibrinogen coagulation time; type: biochemical; details: bovine fibrinogen, thrombin 5 units/ml, borate saline buffer pH 7.4, 25° C; normal coagulation time 50-55 seconds
T1 construct: purchased Mochida Pharmaceutical Co., Ltd
Protocol: The measurement of the fibrinogen coagulation time was conducted as follows:
Immediately after mixing, the reaction mixture was transferred from the ice bath to a bath maintained at 25° C. Coagulation times were taken as the period between the time of transference to the 25° C bath and the time of the first appearance of fibrin threads. […] The term "concentration required to prolong the coagulation time by a factor of two" is the concentration of an active ingredient required to prolong the normal coagulation time 50-55 seconds to 100-110 seconds.

Row | Compound | Concentration required to prolong the coagulation time by a factor of two [2] [µM] | acute toxicity LD50 [1]
1 | CCCCNC(=O)[C@H](CCCNC(=N)N)NS(=O)(=O)c1cccc2c(N(C)C)cccc12 [N^2 -dansyl-N-butyl-L-argininamide, reference compound] | – | 75 milligrams per kilogram
2 | CCCCN(C)C(=O)[C@H](CCCNC(=N)N)NS(=O)(=O)c1cccc2c(N(C)C)cccc12 [N^2 -dansyl-N-methyl-N-butyl-L-argininamide, reference compound] | – | 70 milligrams per kilogram
3 | COCCN(CC(=O)O)C(=O)[C@H](CCCNC(=N)N)NS(=O)(=O)c1cccc2c1CCCC2 [Sample 3, N^2-(5,6,7,8-tetrahydro-1-naphthylsulfonyl)-L-arginyl-N-(2-methoxyethyl)glycine] | 10 | above 1,500 milligrams per kilogram
4 | CCCCN(CC(=O)O)C(=O)[C@H](CCCNC(=N)N)NS(=O)(=O)c1ccc2ccc(C)cc2c1 [Sample 14, N^2-(7-methyl-2-naphthylsulfonyl)-L-arginyl-N-butylglycine] | 0.3 | above 1,500 milligrams per kilogram
5 | COCCN(CC(=O)O)C(=O)[C@H](CCCNC(=N)N)NS(=O)(=O)c1cccc2cc(C)c(C)cc12 [Sample 23, N^2-(6,7-dimethyl-1-naphthylsulfonyl)-L-arginyl-N-(2-methoxyethyl)glycine] | 10 | above 1,500 milligrams per kilogram

Now from value to compound, other results behind:

Row | Concentration required to prolong the coagulation time by a factor of two [2] [µM] | Compound | acute toxicity LD50 [1]
6 | 20 | CCCCN(CC(=O)O)C(=O)[C@H](CCCNC(=N)N)NS(=O)(=O)c1cccc2c1CCCC2 [Sample 1, N^2-(5,6,7,8-tetrahydro-1-naphthylsulfonyl)-L-arginyl-N-butylglycine] | –
7 | 30 | N=C(N)NCCC[C@H](NS(=O)(=O)c1ccc2c(c1)CCCC2)C(=O)N(CC(=O)O)Cc1ccccc1 [Sample 4, N^2-(5,6,7,8-tetrahydro-2-naphthylsulfonyl)-L-arginyl-N-benzylglycine] | –
8 | 0.2 | COCCN(CC(=O)O)C(=O)[C@H](CCCNC(=N)N)NS(=O)(=O)c1ccc2ccc(C)cc2c1 [Sample 15, N^2-(7-methyl-2-naphthylsulfonyl)-L-arginyl-N-(2-methoxyethyl)glycine] | –
9 | 14 | Cc1ccc2ccc(S(=O)(=O)N[C@@H](CCCNC(=N)N)C(=O)N(CC(=O)O)CC3CCCCC3)cc2c1 [Sample 17, N^2-(7-methyl-2-naphthylsulfonyl)-L-arginyl-N-cyclohexylmethylglycine] | –
10 | 20 | COCCN(CC(=O)O)C(=O)[C@H](CCCNC(=N)N)NS(=O)(=O)c1cccc2ccc(C)cc12 [Sample 22, N^2-(7-methyl-1-naphthylsulfonyl)-L-arginyl-N-(2-methoxyethyl)glycine] | –
11 | 4 | CCCCN(CC(=O)O)C(=O)[C@H](CCCNC(=N)N)NS(=O)(=O)c1cccc2c(N(C)C)cccc12 [Sample 24, N^2-(5-dimethylamino-1-naphthylsulfonyl)-L-arginyl-N-butylglycine] | –
